The text below walks through data of US20100166846A1 (priority 2008, published 2010).

Structures are written as SMILES. Where two headings read alike, the source gives them in different places.

For data set [1] the following is noted: rat liver. From the text: The tissue from the control animals (water) served as the 100% of the toxin remaining in the tissue. The animals receiving: • a.
The conditions of data set [2]: humans, reference (7); cited from earlier work.

Take `COc1ccccc1OCC(O)COC(N)=O` (centres unmarked) [methocarbolmol]: for the setting “canine with myoclonus, initial symptom management”, the “tolerability in the animal” value is “neither of which was tolerated”.
Turning to `N[C@@H](CCC(=O)N[C@@H](CS)C(=O)NCC(=O)O)C(=O)O` [Plain glutathione, glutathione], the removal of toxin in data set [1] (CO-60, intravenous administration) turned out to be 70%; in data set [1] (CO-60, oral administration) it was 10%. Besides, the “absorption after oral ingestion” value in data set [2] is reported as “not absorbed”.
In the case of `CN1C(=O)CN=C(c2ccccc2)c2cc(Cl)ccc21` [valium], where the note is “dog, in vivo”, the “tolerability in the animal” value is listed as “neither of which was tolerated”.
